According to ChEMBL document CHEMBL1201862, “PubChem BioAssay data set” (2004):
Calls of active or inactive are those of the source.

Legend:
[1] = biological target: T1, Ubiquitin-conjugating enzyme E2 N (Homo sapiens, UniProt P61088); assay type: functional;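 further: Dose-response confirmation in a TR-FRET assay detecting UBC13-driven polyubiquitin chain formation, inhibition measured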
T1 sequence (P61088 whole entry): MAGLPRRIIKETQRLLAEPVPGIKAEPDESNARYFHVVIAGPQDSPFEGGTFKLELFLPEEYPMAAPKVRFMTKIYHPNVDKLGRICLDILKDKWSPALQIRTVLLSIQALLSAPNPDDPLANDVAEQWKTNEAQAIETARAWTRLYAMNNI

[2] = Trypanosoma cruzi growth suppression in host cells – NIH3T3 host cells, beta-gal luminescence, confirmation (AID 2044); assay type: functional, cell-based;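 further: intracellular parasites grown in NIH/3T3 mouse fibroblasts as host cells; luminescent beta-galactosidase reporter signal from transgenic T. cruzi replicating inside host cells; inhibitors lower the luminescence signal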
[3] = NIH3T3 cell viability loss – ATP luminescence, mouse fibroblasts, counter-screen, dose response (AID 2010); assay type: functional, cell-based;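 further: cells exposed to compound for about 90 hours before reading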
Trypsin = Trypsin (Sus scrofa, UniProt P00761); test: trypsin protease activity blockade – biochemical, quenched peptide fluorescence, cherry-pick, selectivity assay for Rce1 protease inhibitor project, dose response (AID 488789)
CAAX prenyl protease 2 = biological target: T2, CAAX prenyl protease 2 (Saccharomyces cerevisiae S288c, UniProt Q03530); assay type: biochemical
T2 sequence (Q03530 whole entry): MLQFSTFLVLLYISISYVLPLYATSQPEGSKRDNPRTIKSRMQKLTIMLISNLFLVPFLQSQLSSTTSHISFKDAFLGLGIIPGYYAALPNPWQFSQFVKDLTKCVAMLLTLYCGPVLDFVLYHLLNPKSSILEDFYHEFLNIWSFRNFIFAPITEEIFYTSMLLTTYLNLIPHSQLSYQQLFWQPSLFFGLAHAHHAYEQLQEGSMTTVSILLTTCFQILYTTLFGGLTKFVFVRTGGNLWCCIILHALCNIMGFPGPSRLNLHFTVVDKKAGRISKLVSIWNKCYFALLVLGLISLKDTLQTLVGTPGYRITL

Paired box protein Pax-8 = Paired box protein Pax-8 (Homo sapiens, UniProt Q06710); test: PAX8 transcriptional activity inhibition in RMG-I – RMG-I cells, luciferase, cherry-pick, dose response (AID 687027); assay type: functional, cell-based;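 further: luciferase reporter driven by Pax8 target thyroperoxidase promoter measured by SteadyGlo luminescence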
[4] = Luminescence Cell-Based Dose Response HTS to Identify Inhibitors of 5'UTR Stem-Loop Driven Prion Protein mRNA Translation in H4 Neuroglioblastoma Cells. [Related pubchem assays: 1827 (Project Summary), 1813 (Primary HTS)]; assay type: functional
[5] = luciferase reporter signal suppression in cells – H4 neuroglioma cells, luminescence, dose response (AID 1990); assay type: functional, cell-based
[6] = biological target: Serine/threonine-protein phosphatase PP1-alpha catalytic subunit (Homo sapiens, UniProt P62136); test: inhibition of protein phosphatase 1 activity – biochemical, fluorescence, dose response (AID 2394)
[7] = test system: Streptococcus sp. 'group A'; test: Streptococcus pyogenes SK(-)GAS viability under kanamycin – luminescence, BacTiterGlo, confirmation, counter-screen for streptokinase expression inhibitor project, dose response (AID 1900); assay type: functional, organism-based
Streptococcus = test: GAS UMAA2166 growth inhibition – luminescence, BacTiterGlo, counter-screen for streptokinase expression inhibitor project, dose response (AID 1915); assay type: functional, organism-based;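 further: potency for reduction of bacterial viability or growth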
[8] = Intein inhibitors as potential Tuberculosis drugs, a cytotoxicity screen. [Related pubchem assays (depositor defined):AID2221, AID2223, AID434968, AID435010, AID449749, AID449750, AID489010]; assay type: functional
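Wherever CC50 is given: cells exposed to compound for 72 hours before luminescence readout.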

Sequence of Paired box protein Pax-8 (Q06710 whole entry): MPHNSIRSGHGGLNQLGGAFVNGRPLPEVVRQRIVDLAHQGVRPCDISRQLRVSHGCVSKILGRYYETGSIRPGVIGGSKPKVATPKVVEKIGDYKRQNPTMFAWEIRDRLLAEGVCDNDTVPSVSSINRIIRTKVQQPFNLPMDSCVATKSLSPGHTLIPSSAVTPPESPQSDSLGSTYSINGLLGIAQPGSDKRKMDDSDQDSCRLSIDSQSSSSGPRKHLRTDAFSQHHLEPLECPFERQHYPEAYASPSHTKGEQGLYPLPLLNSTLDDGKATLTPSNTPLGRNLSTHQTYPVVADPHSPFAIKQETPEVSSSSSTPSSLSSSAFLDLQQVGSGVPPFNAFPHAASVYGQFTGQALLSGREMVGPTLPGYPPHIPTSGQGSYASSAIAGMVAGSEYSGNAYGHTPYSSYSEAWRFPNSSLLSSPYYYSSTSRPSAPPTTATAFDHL
Sequence of Trypsin (P00761 whole entry): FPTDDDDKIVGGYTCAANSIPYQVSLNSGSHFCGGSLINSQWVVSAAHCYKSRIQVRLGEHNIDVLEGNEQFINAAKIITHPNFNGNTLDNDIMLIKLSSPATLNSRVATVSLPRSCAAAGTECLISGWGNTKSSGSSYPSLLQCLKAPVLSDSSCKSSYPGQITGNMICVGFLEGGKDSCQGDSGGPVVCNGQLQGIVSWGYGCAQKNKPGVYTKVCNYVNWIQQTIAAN
Sequence of Serine/threonine-protein phosphatase PP1-alpha catalytic subunit (P62136 whole entry): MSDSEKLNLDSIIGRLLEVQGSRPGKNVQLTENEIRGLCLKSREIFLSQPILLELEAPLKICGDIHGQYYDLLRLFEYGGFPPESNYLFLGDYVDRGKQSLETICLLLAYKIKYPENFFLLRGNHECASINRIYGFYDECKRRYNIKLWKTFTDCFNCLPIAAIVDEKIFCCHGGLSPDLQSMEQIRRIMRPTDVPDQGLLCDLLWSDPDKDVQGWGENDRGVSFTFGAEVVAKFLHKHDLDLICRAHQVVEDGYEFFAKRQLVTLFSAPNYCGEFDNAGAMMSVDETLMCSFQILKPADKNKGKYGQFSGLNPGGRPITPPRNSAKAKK

With `CCCCCCCCCCOC(=O)Cn1c(COc2cccc(OC)c2)[n+](C)c2ccccc21` the IC50 [1] was > 20 µM (inactive), the EC50 [2] was 0.765 µM (active) and the EC50 [3] was > 60 µM (not active). For the same compound, the AC50 (Trypsin) was 5.16 µM (active) and the AC50 (CAAX prenyl protease 2) was 65.2 µM (active).

For `COc1cc(OC)c(NC2=CC(=O)C(=O)c3ccccc32)cc1Cl`, the AC50 (Paired box protein Pax-8) was 3.4 µM (active), the EC50 [4] was 3.7 µM (active) and the EC50 [5] was 0.412 µM (active).

For `CCc1ccc(S(=O)(=O)/N=C2\C=C(Nc3cccc(C(=O)O)c3)C(=O)c3ccccc32)cc1`, the IC50 [6] was 22.7 µM (not active), the EC50 [7] was 1.26 µM (active) and the EC50 (Streptococcus) was 1.9 µM (active).

For `COc1cc2c(cc1OC)-c1c(OC)c(OC)cc3c1C(C2)N(C)CC3` (configuration not stated), the CC50 [8] was > 40 µM (active).
